In patent publication US20140155415A1, “BENZ[…] BENZODIOXINE COMPOUNDS THAT INTERACT WITH G[…] FOR THE TREATMENT OF DIABETES” (priority 2011, published 2014):

target: T1, GK-GKRP (glucokinase / glucokinase regulatory protein) (Homo sapiens, UniProt Q14397); assay: GKRP LC MS/MS Biochemical Assay (LCMS/MS); details: formation of 13C-glucose-6-phosphate from 13C-glucose by LC MS/MS, human His-hepatic GK, fructose-6-phosphate
T1 sequence (Q14397 1-625): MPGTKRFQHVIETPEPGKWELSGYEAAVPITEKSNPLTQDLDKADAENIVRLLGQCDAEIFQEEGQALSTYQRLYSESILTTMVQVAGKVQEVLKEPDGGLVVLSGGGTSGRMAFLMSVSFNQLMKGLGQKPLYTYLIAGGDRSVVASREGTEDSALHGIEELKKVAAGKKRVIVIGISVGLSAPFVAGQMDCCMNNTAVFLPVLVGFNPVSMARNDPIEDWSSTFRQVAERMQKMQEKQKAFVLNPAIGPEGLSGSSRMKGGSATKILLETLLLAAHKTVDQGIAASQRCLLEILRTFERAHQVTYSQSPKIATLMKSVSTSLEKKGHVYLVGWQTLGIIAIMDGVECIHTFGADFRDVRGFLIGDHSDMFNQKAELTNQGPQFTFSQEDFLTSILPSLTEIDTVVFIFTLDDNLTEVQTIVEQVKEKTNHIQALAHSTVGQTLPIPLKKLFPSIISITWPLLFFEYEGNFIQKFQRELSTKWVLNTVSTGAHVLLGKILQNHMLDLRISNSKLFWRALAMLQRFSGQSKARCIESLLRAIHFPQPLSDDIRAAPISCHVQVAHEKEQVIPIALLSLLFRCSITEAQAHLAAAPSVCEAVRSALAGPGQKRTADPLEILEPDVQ
Description: GKRP LC MS/MS Biochemical Assay (LCMS/MS)
This assay is used to directly measure the formation of ^13C-glucose-6-phosphate from ^13C-glucose by LC MS/MS. Begin by preparing the following solutions: Compound Buffer (CB): 50 mM Tris, pH 7.5/4 mM MgCl2/6% DMSO/fresh 10 mM DTT from 1M frozen stock. Enzyme Buffer (EB): 50 mM Tris, pH 7.5/4 mM MgCl2/6% DMSO/fresh 0.1% BSA/fresh 0.01% Brij-35 (10% BSA and 1% Brij-35 stock). GK (Glucokinase) Working Stock (5×): Dilute human His-hepatic GK to 30 nM in EB buffer. […] Seal the plate and incubate for 30 minutes at room temperature while mixing. After 30 minutes add 10 μl of GK Working Stock (5×). Re-seal the plate and incubate for another 30 minutes at room temperature while mixing. After the second 30 minutes, stop the reaction by the addition of 50 μl of 100% acetonitrile, seal, and mix for 5-10 minutes. Run 10 μl of this sample through the LC MS/MS (API 3200, Applied Biosystems, Carlsbad, Calif.). […]
(§1) In the Examples, the assays are referred to as “LCMS/MS” or “Binding.”

Point of comparison: `O=S(=O)(NC(c1cc2ccccc2o1)c1cccnc1Cl)c1ccc2c(c1)OCCCO2` (racemic) [Example 27, N-(1-benzofuran-2-yl(2-chloro-3-pyridinyl)methyl)-3,4-dihydro-2H-1,5-benzodioxepine-7-sulfonamide], EC50 1200 nM. Against it:
- Cc1ccccc1C(NS(=O)(=O)c1ccc2c(c1)OCCCO2)c1cc2ccccc2o1 (racemic) [Example 2, N-(1-benzofuran-2-yl(2-methylphenyl)methyl)-3,4-dihydro-2H-1,5-benzodioxepine-7-sulfonamide] — 11-fold lower, 110 nM
- O=S(=O)(NC(c1cc2ccccc2o1)c1ccccc1CCO)c1ccc2c(c1)OCCCO2 (racemic) [Example 16, N-(1-benzofuran-2-yl(2-(2-hydroxyethyl)phenyl)methyl)-3,4-dihydro-2H-1,5-benzodioxepine-7-sulfonamide] — 2.7-fold higher, 3200 nM
- O=S(=O)(NC(c1cccc(F)c1)c1cc2ccccc2o1)c1ccc2c(c1)OCCCO2 (racemic) [Example 24, N-(1-benzofuran-2-yl(3-fluorophenyl)methyl)-3,4-dihydro-2H-1,5-benzodioxepine-7-sulfonamide] — 1.5-fold higher, 1800 nM
- O=S(=O)(NC(c1cc2ccccc2o1)c1ccncc1Cl)c1ccc2c(c1)OCCCO2 (racemic) [Example 28, N-(1-benzofuran-2-yl(3-chloro-4-pyridinyl)methyl)-3,4-dihydro-2H-1,5-benzodioxepine-7-sulfonamide] — within 1.5-fold, 1600 nM

target: T2, GK-GKRP (interaction between glucokinase and glucokinase regulatory protein) (Homo sapiens, UniProt Q14397); assay: GK-GKRP Binding Assay (Binding), AlphaScreen; details: not given
T2 construct: made in house; host or cells: GKRP: baculovirus system
T2 sequence (Q14397 1-625): T1 sequence (Q14397 1-625)
Description: GK-GKRP Binding Assay Protocol (Binding)
This assay is used to directly measure the interaction between glucokinase (GK) and glucokinase regulatory protein (GKRP). Begin by preparing the following solutions. Assay Buffer: 20 mM Tris, pH 7.5/0.05% BSA/1 mM DTT/1 μM sorbitol-6-phosphate. […] Combine the following reagents in a white 96-well half area plate. Pipette 14 μl of the diluted avi-tagged GKRP into each well. Add 1 μl of compound to be tested and incubate at room temperature for 20 minutes. After 20 minutes, add 5 μl of assay buffer containing 6 nM GK-fluorescein. […] Incubate in a dark room for 2 hours at room temperature. After 2 hours read the plate using an Envision plate reader (Perkin Elmer, Waltham Mass.).
Recombinant human glucokinase (hepatic) was purified and formulated in 50 mM Tris (pH 7.5), 150 mM NaCl and 20 mM glucose previous to labeling with fluorescein. […] Unreacted dye was removed by extensive dialysis into the final formulation buffer: 25 mM Tris (pH 7.2), 150 mM NaCl, 10% glycerol and 2 mM DTT. The human glucokinase regulatory protein construct was designed with a C-terminal avitag and was expressed in a baculovirus system. Purified GKRP was incubated overnight with recombinant biotin ligase in the presence of D-biotin, ATP and MgCl2. GKRP was isolated from reaction components by chromatography on a Superdex 200 size exclusion column into: 50 mM HEPES, 150 mM NaCl and 5 mM DTT. […] Proteins were quantitated according to their calculated molar extinction coefficients at A280 and were stored at −80° C.
as §1

Point of comparison: `O=S(=O)(N[C@@H](c1cc2ccccc2s1)c1ccccc1Cl)c1ccc2c(c1)OCC(O)CO2` (mixture of isomers) [Example 77, N—((R)-1-Benzothiophen-2-yl(2-chlorophenyl)methyl)-3-hydroxy-3,4-dihydro-2H-1,5-benzodioxepine-7-sulfonamide], IC50 97 nM. Against it:
- COc1ccc(S(=O)(=O)NC(c2cc3ccccc3s2)c2ccccc2SC)cc1OC (racemic) [Example 74] — 28-fold higher, 2700 nM

same assay, conditions: avi-tagged GKRP, GK-fluorescein, AlphaScreen beads, 1 μM sorbitol-6-phosphate; read-out: GK-GKRP IC50 (Binding)

Point of comparison: `C[C@](O)(c1ccnc(-c2cccc3cc([C@H](NS(=O)(=O)c4ccc5c(c4)OCCCO5)c4ccccc4Cl)sc23)c1)C(F)(F)F` [Example 85, N—((R)-(2-Chlorophenyl)(7-(4-((1S)-2,2,2-trifluoro-1-hydroxy-1-methylethyl)-2-pyridinyl)-1-benzothiophen-2-yl)methyl)-3,4-dihydro-2H-1,5-benzodioxepine-7-sulfonamide], IC50 23 nM. Against it:
- COc1cccnc1C(NS(=O)(=O)c1ccc2c(c1)OCCCO2)c1nc2cccnc2s1 (racemic) [Example 69, N-((3-methoxy-2-pyridinyl)([1,3]thiazolo[5,4-b]pyridin-2-yl)methyl)-3,4-dihydro-2H-1,5-benzodioxepine-7-sulfonamide] — 65-fold higher, 1500 nM
- O=S(=O)(N[C@@H](c1cc2ccccc2s1)c1ccccc1Cl)c1ccc2c(c1)OCC(F)CO2 (mixture of isomers) [Example 78, N—((R)-1-Benzothiophen-2-yl(2-chlorophenyl)methyl)-3-fluoro-3,4-dihydro-2H-1,5-benzodioxepine-7-sulfonamide] — 2-fold higher, 47 nM
- Nc1cccc(C(NS(=O)(=O)c2ccc3c(c2)OCCCO3)c2cc3ccccc3o2)n1 (racemic) [Example 79, N-((6-amino-2-pyridinyl)(1-benzofuran-2-yl)methyl)-3,4-dihydro-2H-1,5-benzodioxepine-7-sulfonamide] — 4.3-fold higher, 98 nM
- O=S(=O)(NC(c1ccccc1)c1cc2ccnc(Cl)c2s1)c1ccc2c(c1)OCCCO2 (racemic) [Example 80, N-((7-Chlorothieno[2,3-c]pyridin-2-yl)(phenyl)methyl)-3,4-dihydro-2H-1,5-benzodioxepine-7-sulfonamide] — 48-fold higher, 1100 nM
- Cc1cccnc1[C@H](NS(=O)(=O)c1ccc2c(c1)OCCCO2)c1cc2ccccc2o1 (single isomer, unassigned) [Example 26 Peak #1] — higher, > 33000 nM
- CSc1ccccc1[C@H](NS(=O)(=O)c1ccc2c(c1)OCCCO2)c1nc2cccnc2s1 (single isomer, unassigned) [Example 65 Peak #1] — 39-fold higher, 900 nM
- COc1ccccc1[C@H](NS(=O)(=O)c1ccc2c(c1)OCCCO2)c1nc2cccnc2s1 (single isomer, unassigned) [Example 67 Peak #1] — 120-fold higher, 2800 nM
- O=S(=O)(N[C@H](c1nc2cccnc2s1)c1ccccc1Cl)c1ccc2c(c1)OCCCO2 (single isomer, unassigned) [Example 68 Peak #1] — 87-fold higher, 2000 nM
- O=S(=O)(N[C@@H](c1ccccc1)c1cc2cccc(-c3ccccn3)c2s1)c1ccc2c(c1)OCCCO2 (single isomer, unassigned) [Example 71 Peak #1] — 34-fold higher, 790 nM
- O=S(=O)(N[C@@H](c1cc2ccccc2s1)c1ccccc1Cl)c1ccc2c(c1)OCC(F)(F)CO2 [Example 76, N—((R)-1-Benzothiophen-2-yl(2-chlorophenyl)methyl)-3,3-difluoro-3,4-dihydro-2H-1,5-benzodioxepine-7-sulfonamide] — 27-fold higher, 620 nM
- O=S(=O)(N[C@@H](c1cc2cccc(-c3cc(C(O)(C(F)(F)F)C(F)(F)F)ccn3)c2s1)c1ccccc1Cl)c1ccc2c(c1)OCCCO2 [Example 81, N—((R)-(2-Chlorophenyl)(7-(4-(2,2,2-trifluoro-1-hydroxy-1-(trifluoromethyl)ethyl)-2-pyridinyl)-1-benzothiophen-2-yl)methyl)-3,4-dihydro-2H-1,5-benzodioxepine-7-sulfonamide] — 3.8-fold higher, 87 nM
- COc1ccc(S(=O)(=O)N[C@@H](c2cc3cccc(-c4cc(C(O)(C(F)(F)F)C(F)(F)F)ccn4)c3s2)c2ccccc2Cl)cc1OC [Example 82, N—((R)-(2-Chlorophenyl)(7-(4-(2,2,2-trifluoro-1-hydroxy-1-(trifluoromethyl)ethyl)-2-pyridinyl)-1-benzothiophen-2-yl)methyl)-3,4-dimethoxybenzenesulfonamide] — 39-fold higher, 907 nM
- C[C@@](O)(c1ccnc(-c2cccc3cc([C@H](NS(=O)(=O)c4ccc5c(c4)OCCCO5)c4ccccc4Cl)sc23)c1)C(F)(F)F [Example 83, N—((R)-(2-Chlorophenyl)(7-(4-((1R)-2,2,2-trifluoro-1-hydroxy-1-methylethyl)-2-pyridinyl)-1-benzothiophen-2-yl)methyl)-3,4-dihydro-2H-1,5-benzodioxepine-7-sulfonamide] — 1.7-fold higher, 38 nM
- COc1ccc(S(=O)(=O)N[C@@H](c2cc3cccc(-c4cc([C@@](C)(O)C(F)(F)F)ccn4)c3s2)c2ccccc2Cl)cc1OC [Example 84, N—((R)-(2-Chlorophenyl)(7-(4-((1R)-2,2,2-trifluoro-1-hydroxy-1-methylethyl)-2-pyridinyl)-1-benzothiophen-2-yl)methyl)-3,4-dimethoxybenzenesulfonamide] — 12-fold higher, 276 nM
- COc1ccc(S(=O)(=O)N[C@@H](c2cc3cccc(-c4cc([C@](C)(O)C(F)(F)F)ccn4)c3s2)c2ccccc2Cl)cc1OC [Example 86, N—((R)-(2-Chlorophenyl)(7-(4-((1S)-2,2,2-trifluoro-1-hydroxy-1-methylethyl)-2-pyridinyl)-1-benzothiophen-2-yl)methyl)-3,4-dimethoxybenzenesulfonamide] — 3.1-fold higher, 72 nM
- Nc1cc(C(NS(=O)(=O)c2ccc3c(c2)OCCCO3)c2cc3ccccc3o2)ccn1 (stereo not drawn) [Example 87, N-((2-Amino-4-pyridinyl)(1-benzofuran-2-yl)methyl)-3,4-dihydro-2H-1,5-benzodioxepine-7-sulfonamide] — 210-fold higher, 4880 nM
